Assay results: patent US20030153081A1, “Viral core protein-cationic lipid-nucleic acid-delivery complexes” (priority 1999, published 2003)

What was measured:
COS-7 cells = test: β-galactosidase enzyme assay, transfection of COS-7 cells; format: cell-based, Green Monkey; settings: COS-7, same pDNA:Mu1:liposome ratio as optimal for ND7
Experimental: COS cells were seeded at a density of 60-80% confluence in 24 well culture dishes 24 hrs prior to transfection. Immediately prior to transfection, cells were washed in serum-free media Incubating pCMVβ with Mu1 prior to the addition of the cationic liposome DC-Chol/DOPE formed complexes capable of cellular transfection. In each case 1 μg pCMVβ was complexed with 12 μg Mu1 peptide that had been found optimal for ND7 cells. The pCMVβ:Mu1 complexes were then mixed with 3, 4 and 6 μg DC-Chol/DOPE. COS cells were exposed to transfection complexes for 2 hours then maintained at 37° C., 5% CO2 for another 24 hrs before being harvested and processed for β-galactosidase enzyme assay. Numbers represent means±SD, n=3.
COS-7 cells (derived from Green Monkey kidney) were grown in RPMI 1640 media (BRL) supplemented with 10% fetal bovine serum (BRL) and 100 IU/mL penicillin/streptomycin (BRL).
In order to see whether improved transfections could be achieved in other cell types we performed a similar analysis on COS-7 cells. […] The same ratio of pDNA:Mu1:liposome optimal for ND7 cells was best for COS-7, cells. A similar degree of improvement was also seen (3.7 fold) over cationic liposomes alone.

Swiss 3T3 cells = test: β-galactosidase assay, Mu1 vs protamine in confluent Swiss 3T3 cells; format: cell-based; settings: liposome (B198:DOPE 3:2):peptide:DNA 12:0.6:1, final DNA concentration 5.0 μg/l, 1 or 2 h
Text: Protamine is a naturally occurring cationic peptide abundant in piscine sperm and is potent in neutralising and condensing DNA. The transfection activity of protamine was compared with that of Mu1 peptide. Mu1 peptide or protamine sulfate (Sigma, grade X from Salmon) was complexed with DNA (pCMVβ) and then cationic liposomes (B 198:DOPE in a ratio of 3:2 m/m) giving a liposome:peptide:DNA ratio of 12:0.6:1 (w/w/w).
The transfection activities were examined in Swiss 3T3 cells. The cells were seeded at an approximate density of 2×10^4 per well in a 24-well culture plate in DMEM supplemented with 10% FCS and grown for 48 h to complete confluence in the presence of 5% CO2 at 37° C. Cells were washed by brief exposure to DMEM and then treated with solutions containing LMD or LD complexes, prediluted with DMEM (final DNA concentration 5.0 μg/l in all cases), for 1 or 2 h. Cells were then washed again and incubated for a further 48 h in DMEM supplemented with 10% FCS prior to harvesting. The level of β-galactosidase enzyme activity was determined with a standard assay kit (Promega).

HeLa cells = test: β-galactosidase assay, alternative cationic peptides in HeLa cells; format: cell-based, human; settings: DC-Chol:DOPE liposome:peptide:DNA 12:0.6:1, 30 min, DNA 1.0 μg/ml
Experimental: In order to examine the effects of various alternative cationic peptides on transfection activities, a series of liposome:cationic peptide:DNA complexes were prepared and their relative transfection abilities analysed in vitro. The peptides used were poly-lysine hydrochloride (average molecular weight 3970, Sigma), poly arginine hydrochloride (average molecular weight 11800, Sigma) a peptide derived from protein V, pV (p5, sequence shown below), a peptide analogue of Mu1 (V, sequence shown below) and Mu1 peptide itself. The p5 peptide and V peptide were synthesized using the same solid-phase peptide synthesis methodology as was used to prepare Mu1 peptide.
Each peptide was combined with cationic liposome (DC-Chol:DOPE 3:2 m/m) and DNA (pCMVβ) in the liposome:peptide:DNA ratio of 12:0.6:1 (w/w/w) as described in Example 4. The transfection activities were examined using HeLa cells (human epithelial cells). The cells were seeded at an approximate density of 5×10^4 per well in a 24-well culture plate in DMEM supplemented with 10% FCS and grown for 24 h in the presence of 5% CO2 at 37° C. Cells were washed by brief exposure to DMEM and then treated with solutions containing LMD or LD complexes, prediluted with OPTIMEM (Gibco) (final DNA concentration 1.0 μg/ml in all cases), for 30 min. Cells were then washed again and incubated for a further 48 h in DMEM supplemented with 10% FCS prior to harvesting. The level of β-galactosidase enzyme activity was determined with a standard assay kit (chemiluminescent, Roche).

H-MRRAHHRRRRASHRRMRGG-OH [Mu1]
improvement over cationic liposomes alone (COS-7 cells): 3.7 fold | transfection compared with complexes comprising protamine (Swiss 3T3 cells): better transfection | transfection activity compared to poly lysine and poly arginine complexes (HeLa cells): excellent transfection activity
